The METLIN SMRT retention time set (Domingo-Almenara et al. 2019)

Test: gradient 5% acetonitrile 3 min, to 50% in 2 min, to 85% in 15 min, held 3 min, 100 µL/min
Conditions: column: Zorbax Extend-C18 2.1 x 50 mm; eluents: water / acetonitrile, 0.1% formic acid
Procedure, shortened: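 In both positive and negative ionization mode, a quadrupole time-of-flight mass spectrometer coupled to HPLC analyzed pure standards run in mixtures of ~100 molecules. The Zorbax Extend-C18 column (2.1 × 50 mm, 1.8 μm) was operated at 100 μL/min with water and acetonitrile, each containing 0.1% formic acid. The dead volume was 40 μL and the dwell volume 900 μL. Retention time came from adduct peaks that were computationally picked and individually inspected by hand.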

**Q.** Which RP-LC retention time does the source give for `COc1ccc(NC(=O)CSc2nnc(CNC(=O)c3cccs3)o2)c(OC)c1` here?
**A.** Its RP-LC retention time is 614 s.

**Q.** For `CC1(C)Cc2cccc(OCC(=O)N3CCC(c4nnc(-c5ccco5)s4)CC3)c2O1`, which RP-LC retention time is on record?
**A.** Its RP-LC retention time is 827 s.

**Q.** For `O=C(NCCC1=CCCCC1)C(=O)NCC(O)c1ccc(C(F)(F)F)cc1` (centres undefined), which RP-LC retention time is on record?
**A.** Its RP-LC retention time is 949 s.

**Q.** For `Cc1cc(=O)n(CC(=O)NCc2ccccc2Cl)c(N)n1`, which RP-LC retention time is on record?
**A.** Its RP-LC retention time is 603 s.

**Q.** For `CC(=O)Nc1cccc(-c2nc(-c3ccc4c(c3)nnn4C3CCCC3)no2)c1`, which RP-LC retention time is on record?
**A.** The RP-LC retention time was 1010 s.

**Q.** With `COC(=O)c1ccc2c(=O)n(-c3cccc(F)c3)c(N3CCCCC3)nc2c1` as the compound, how does the RP-LC retention time read?
**A.** The RP-LC retention time was 1150 s.

**Q.** With `CCc1onc(C)c1C1CCCN1C(=O)Nc1ccccc1OC` (centres undefined) as the compound, how does the RP-LC retention time read?
**A.** The RP-LC retention time was 825 s.

**Q.** With `CCc1ccc(CNC(=O)C2CCN(c3ncnc4c3oc3ccccc34)CC2)cc1` as the compound, how does the RP-LC retention time read?
**A.** Its RP-LC retention time is 842 s.

**Q.** For `CCn1cc(S(=O)(=O)NCc2ccccc2C)c2cccnc21`, which RP-LC retention time is on record?
**A.** Its RP-LC retention time is 853 s.

**Q.** Which RP-LC retention time does the source give for `CCOCC1CCC2(CCN(S(=O)(=O)c3ccc(C)c(F)c3)CC2)O1` (centres undefined) here?
**A.** Its RP-LC retention time is 1090 s.

**Q.** With `O=C(NC1CCN(c2nnc3ccc(C(F)(F)F)cn23)CC1)c1cccc(F)c1` as the compound, how does the RP-LC retention time read?
**A.** Its RP-LC retention time is 782 s.

**Q.** Which RP-LC retention time does the source give for `COc1cc(NC(=O)N2CCCC2c2ccccc2C)cc(OC)c1OC` (centres undefined) here?
**A.** Its RP-LC retention time is 865 s.

**Q.** With `CN(C)c1ccc(CNC(=O)c2cc3n(n2)CC(C)(C(=O)NCc2ccccc2)N(C)C3=O)cc1` (centres undefined) as the compound, how does the RP-LC retention time read?
**A.** The RP-LC retention time was 607 s.

**Q.** With `O=S(=O)(c1ccc2nncn2c1)N(Cc1cc(F)cc(F)c1)c1cc(F)cc(F)c1` as the compound, how does the RP-LC retention time read?
**A.** The RP-LC retention time was 910 s.

**Q.** For `COc1ccc(Cl)cc1C(=O)N1CCC(c2nc3ccncc3n2C(C)C)C1` (centres undefined), which RP-LC retention time is on record?
**A.** Its RP-LC retention time is 543 s.

**Q.** Which RP-LC retention time does the source give for `COc1ccc(CNC2=NCCNC23CCN(S(=O)(=O)c2ccc(C)cc2)CC3)cc1` here?
**A.** The RP-LC retention time was 732 s.

**Q.** For `CCn1cnc(S(=O)(=O)N2CCC(C(=O)N3CCN(c4cccc(Cl)c4)CC3)CC2)c1`, which RP-LC retention time is on record?
**A.** The RP-LC retention time was 825 s.

**Q.** With `CCn1ccc2c(cc(C(=O)Nc3ccc(OC)c(Cl)c3)n2C)c1=O` as the compound, how does the RP-LC retention time read?
**A.** The RP-LC retention time was 1330 s.

**Q.** Which RP-LC retention time does the source give for `Cc1cccc(N2CCN(c3cc(C(=O)O)c4cc(NC(=O)C5CCCC5)ccc4n3)CC2)c1C` here?
**A.** The RP-LC retention time was 799 s.

**Q.** For `Cc1ccccc1C(=O)N1CC(C(=O)NCC(C)C)C(c2cccc(C(F)(F)F)c2)C1` (centres undefined), which RP-LC retention time is on record?
**A.** Its RP-LC retention time is 907 s.

**Q.** Which RP-LC retention time does the source give for `CCC1CCCCN1CCCNC(=O)C1CCCN(c2nccnc2Sc2ccccc2)C1` (centres undefined) here?
**A.** Its RP-LC retention time is 714 s.

**Q.** For `COCCn1cc2c3c(cccc31)CN(C(=O)c1cccc(Cl)c1)CC2`, which RP-LC retention time is on record?
**A.** Its RP-LC retention time is 960 s.

**Q.** Which RP-LC retention time does the source give for `Cc1oc(-c2[nH]ncc2C(=O)N2CCOCC2)cc1S(=O)(=O)Nc1cccc(F)c1` here?
**A.** The RP-LC retention time was 669 s.

**Q.** With `O=C(Nc1ccccc1)C1CCN(S(=O)(=O)c2cc(C(=O)N3CCOCC3)cs2)CC1` as the compound, how does the RP-LC retention time read?
**A.** The RP-LC retention time was 757 s.

**Q.** Which RP-LC retention time does the source give for `CNCc1ccc(-c2cccc(C(F)(F)F)c2)o1` here?
**A.** Its RP-LC retention time is 673 s.

**Q.** With `CCC(=O)NCc1nc2c(n1C)CN(S(=O)(=O)c1cccc(Cl)c1)CC2` as the compound, how does the RP-LC retention time read?
**A.** Its RP-LC retention time is 570 s.

**Q.** With `COC(=O)c1cccc(NC(=O)c2sc(-c3cn(C)c4ncccc34)nc2C)c1` as the compound, how does the RP-LC retention time read?
**A.** Its RP-LC retention time is 927 s.

**Q.** Which RP-LC retention time does the source give for `Cc1ccc(Cl)cc1NC(=O)N1CCC(n2c(-c3ccco3)nc3cccnc32)C1` (centres undefined) here?
**A.** The RP-LC retention time was 835 s.

**Q.** For `CN1CCN(CCNC(=O)CCc2cn(-c3ccccc3)nc2-c2ccc3c(c2)OCO3)CC1`, which RP-LC retention time is on record?
**A.** Its RP-LC retention time is 639 s.

**Q.** With `O=C(NCCc1cccnc1)c1cn(-c2cc(N3CCOCC3)ncn2)cn1` as the compound, how does the RP-LC retention time read?
**A.** Its RP-LC retention time is 565 s.

**Q.** For `Cc1cccc2nc(-c3ccc(N4CCOCC4)cc3)c(Nc3ccc4c(c3)OCCO4)n12`, which RP-LC retention time is on record?
**A.** The RP-LC retention time was 664 s.

**Q.** For `Cc1cc(=O)n(CC(=O)Nc2ccc(F)c(F)c2)c(N)n1`, which RP-LC retention time is on record?
**A.** Its RP-LC retention time is 598 s.

**Q.** With `COc1ccc(-c2cc3n(n2)CCCN(S(=O)(=O)c2ccc4c(c2)CCC4)C3)cc1` as the compound, how does the RP-LC retention time read?
**A.** The RP-LC retention time was 1080 s.

**Q.** For `O=C(NC1CCCC1)N1CCN(c2ncccc2-c2nnc(C3CC3)o2)CC1`, which RP-LC retention time is on record?
**A.** Its RP-LC retention time is 719 s.

**Q.** For `CC(=O)N1CCN(Cc2nc(-c3ccc(N4CCSCC4)nc3)no2)CC1`, which RP-LC retention time is on record?
**A.** Its RP-LC retention time is 669 s.

**Q.** With `CCC(=O)Nc1cc2c(cc1N1CCC(C)CC1)n(C)c(=O)c(=O)n2C` as the compound, how does the RP-LC retention time read?
**A.** The RP-LC retention time was 773 s.

**Q.** Which RP-LC retention time does the source give for `O=C(NCC1CCCO1)C1CCN(c2cnn(Cc3ccccc3)c(=O)c2)CC1` (centres undefined) here?
**A.** The RP-LC retention time was 667 s.

**Q.** With `CNC(=O)CCC(=O)N1c2ccccc2NC2=C(C(=O)CC(C)(C)C2)C1c1ccccc1` (centres undefined) as the compound, how does the RP-LC retention time read?
**A.** Its RP-LC retention time is 686 s.

**Q.** For `CCn1ccc2sc(C)c(C(=O)NCc3ccccc3Br)c2c1=O`, which RP-LC retention time is on record?
**A.** Its RP-LC retention time is 926 s.

**Q.** With `COc1ccccc1C(=O)N1CC(Oc2cccc(-c3nc(-c4ccccc4)no3)c2)C1` as the compound, how does the RP-LC retention time read?
**A.** The RP-LC retention time was 1130 s.

**Q.** For `O=C(c1ccsc1)N1CCN(c2cc(-c3ccccc3)[nH]n2)CC1`, which RP-LC retention time is on record?
**A.** The RP-LC retention time was 730 s.

**Q.** With `CC(C)n1cnc(S(=O)(=O)N2CCCC(C(=O)N3CCN(c4ncccn4)CC3)C2)c1` (centres undefined) as the compound, how does the RP-LC retention time read?
**A.** Its RP-LC retention time is 682 s.

**Q.** Which RP-LC retention time does the source give for `CCN1CCN(c2cc(C)c3cc(NC(=S)NCCC(C)C)ccc3n2)CC1` here?
**A.** Its RP-LC retention time is 588 s.

**Q.** For `Cc1ccc(-c2ccc(N3CCCC(C(=O)NCCN4CCC(C)CC4)C3)nn2)cc1` (centres undefined), which RP-LC retention time is on record?
**A.** The RP-LC retention time was 594 s.

**Q.** With `COC(=O)C1=CN(c2ccccc2)c2ccccc2S1(=O)=O` as the compound, how does the RP-LC retention time read?
**A.** Its RP-LC retention time is 777 s.

**Q.** With `Cc1ccc(-c2noc(C3CCCN3S(=O)(=O)c3ccc(Br)cc3)n2)cc1` (centres undefined) as the compound, how does the RP-LC retention time read?
**A.** Its RP-LC retention time is 1230 s.

**Q.** For `CCN(CC)S(=O)(=O)c1ccc(C)c(-c2nnc(-c3ccc(Cl)cc3)o2)c1`, which RP-LC retention time is on record?
**A.** The RP-LC retention time was 1200 s.

**Q.** Which RP-LC retention time does the source give for `CCOC(=O)C(=O)Nc1ccc(-c2nc(-c3ccc(C)cc3C)co2)cc1` here?
**A.** The RP-LC retention time was 1170 s.

**Q.** With `COc1ccc(N2CCN(S(=O)(=O)c3cc(-c4cc(C(F)(F)F)on4)sc3C)CC2)cc1` as the compound, how does the RP-LC retention time read?
**A.** Its RP-LC retention time is 1270 s.

**Q.** With `COc1cc(-c2noc(-c3nc(-c4ccc(C)cc4)no3)n2)cc(OC)c1OC` as the compound, how does the RP-LC retention time read?
**A.** The RP-LC retention time was 1260 s.

**Q.** With `Cn1c(C(=O)NC2CCCCCC2)cc2sccc21` as the compound, how does the RP-LC retention time read?
**A.** The RP-LC retention time was 1020 s.

**Q.** With `COc1ccc(CNC(=O)c2cn(C)nc2S(=O)(=O)N2CCSCC2)c(OC)c1` as the compound, how does the RP-LC retention time read?
**A.** Its RP-LC retention time is 855 s.

**Q.** For `CCN1CCN(C(=O)c2nc(-c3ccnc(N4CCCCC4)c3)no2)CC1`, which RP-LC retention time is on record?
**A.** The RP-LC retention time was 568 s.

**Q.** Which RP-LC retention time does the source give for `Cc1cc(C)c(NC(=O)CN2C(=O)CC(c3cccs3)=Nc3ccccc32)c(C)c1` here?
**A.** The RP-LC retention time was 954 s.

**Q.** For `CCNS(=O)(=O)c1cc(-c2nnc(-c3ccc(OC)c(OC)c3)o2)ccc1C`, which RP-LC retention time is on record?
**A.** The RP-LC retention time was 833 s.

**Q.** With `CCOc1ccc(-c2ccc(=O)n(Cc3nc(-c4ccc(F)cc4)no3)n2)cc1` as the compound, how does the RP-LC retention time read?
**A.** The RP-LC retention time was 1090 s.

**Q.** With `CSc1ccccc1CN1CCC(CNC(=O)C(=O)NCCC2=CCCCC2)CC1` as the compound, how does the RP-LC retention time read?
**A.** Its RP-LC retention time is 622 s.

**Q.** Which RP-LC retention time does the source give for `COc1ccccc1-c1nc(COc2cc(C)c3c(C)nn(C)c3n2)c(C)o1` here?
**A.** Its RP-LC retention time is 1030 s.

**Q.** For `CC(C)(C)OC(=O)N1CCN(CCNC(=O)CSc2nc3ccccc3o2)CC1`, which RP-LC retention time is on record?
**A.** The RP-LC retention time was 595 s.

**Q.** Which RP-LC retention time does the source give for `Cc1cccc(NC(=O)CN2C(=O)C3CCCCN3c3ccc(C(=O)N4CCCC4)cc32)c1` (centres undefined) here?
**A.** The RP-LC retention time was 853 s.

**Q.** Which RP-LC retention time does the source give for `Cc1ccc(-c2nnc(-c3nn(C)c4c3CN(S(=O)(=O)c3c(C)cc(C)cc3C)CC4)o2)cc1` here?
**A.** Its RP-LC retention time is 1160 s.

**Q.** With `Cc1ccsc1C(=O)NCCn1c(=O)n(Cc2ccc(F)cc2)c2cccnc21` as the compound, how does the RP-LC retention time read?
**A.** Its RP-LC retention time is 824 s.

**Q.** Which RP-LC retention time does the source give for `Cc1cc(C)n(-c2ccnc(N3CCC(C(=O)NC(C)c4ccc(F)cc4)CC3)n2)n1` (centres undefined) here?
**A.** The RP-LC retention time was 872 s.

**Q.** For `Cn1ccc2cc(S(=O)(=O)N3CCC(C(=O)N4CCN(Cc5ccccc5)CC4)CC3)ccc21`, which RP-LC retention time is on record?
**A.** The RP-LC retention time was 671 s.
